Laboratory results as given in ChEMBL document CHEMBL5352421, “Identification of novel piperazine-tethered phthalazines as selective CDK1 inhibitors endowed with in vitro anticancer activity toward the pancreatic cancer” (Eur J Med Chem, 2022).
The source made the active and inactive calls. The calls are words filed in the database; no cut-off is given here.

Key:
[1] = Antiproliferative activity against human MDA-PATC53 cells assessed as growth inhibition incubated at 10 uM for 24 hrs by MTT assay relative to control; format: functional; settings: read-out: GI
[2] = Antiproliferative activity against human PL45 cells assessed as growth inhibition incubated at 10 uM for 24 hrs by MTT assay relative to control; format: functional; settings: read-out: GI
[3] = tested on: SK-MEL-1; test: Antiproliferative activity against human SK-MEL-1 cells assessed as growth inhibition incubated at 10 uM for 24 hrs by MTT assay relative to control; format: functional; settings: read-out: GI
[4] = tested on: A-375; test: Antiproliferative activity against human A-375 cells assessed as growth inhibition incubated at 10 uM for 24 hrs by MTT assay relative to control; format: functional; settings: read-out: GI
[5] = tested on: G-361; test: Antiproliferative activity against human G-361 cells assessed as growth inhibition incubated at 10 uM for 24 hrs by MTT assay relative to control; format: functional; settings: read-out: GI
[6] = tested on: MOLT-4; test: Antiproliferative activity against human MOLT-4 cells assessed as growth inhibition incubated at 10 uM for 24 hrs by MTT assay relative to control; format: functional; settings: read-out: GI
[7] = tested on: KG-1; test: Antiproliferative activity against human KG-1 cells assessed as growth inhibition incubated at 10 uM for 24 hrs by MTT assay relative to control; format: functional; settings: read-out: GI
[8] = tested on: T84; test: Antiproliferative activity against human T84 cells assessed as growth inhibition incubated at 10 uM for 24 hrs by MTT assay relative to control; format: functional; settings: read-out: GI
[9] = tested on: HT-29; test: Antiproliferative activity against human HT-29 cells assessed as growth inhibition incubated at 10 uM for 24 hrs by MTT assay relative to control; format: functional; settings: read-out: GI
[10] = tested on: MCF7; test: Antiproliferative activity against human MCF7 cells assessed as growth inhibition incubated at 10 uM for 24 hrs by MTT assay relative to control; format: functional; settings: read-out: GI
[11] = tested on: BT-549; test: Antiproliferative activity against human BT-549 cells assessed as growth inhibition incubated at 10 uM for 24 hrs by MTT assay relative to control; format: functional; settings: read-out: GI
[12] = Antiproliferative activity against human MDA-PATC53 cells assessed as growth inhibition incubated for 24 hrs by MTT assay; format: functional, cell-based; settings: MDA-PATC53, 24 h
[13] = Antiproliferative activity against human PL45 cells assessed as growth inhibition incubated for 24 hrs by MTT assay; format: functional, cell-based; settings: PL45, 24 h
[14] = target: Cyclin-dependent kinase 1 (Homo sapiens, UniProt P06493); test: Inhibition of CDK1 (unknown origin) by FRET assay
Chain of Cyclin-dependent kinase 1 (P06493 whole entry): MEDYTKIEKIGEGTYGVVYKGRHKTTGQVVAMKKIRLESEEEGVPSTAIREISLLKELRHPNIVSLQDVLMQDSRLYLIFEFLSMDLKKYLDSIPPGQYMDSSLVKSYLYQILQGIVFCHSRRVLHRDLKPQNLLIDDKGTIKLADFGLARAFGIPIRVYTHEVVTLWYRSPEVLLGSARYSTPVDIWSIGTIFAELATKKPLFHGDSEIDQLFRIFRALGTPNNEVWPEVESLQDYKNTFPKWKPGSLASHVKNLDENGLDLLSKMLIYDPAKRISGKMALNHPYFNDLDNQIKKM

[15] = target: Cyclin-dependent kinase 2 (Homo sapiens, UniProt P24941); test: Inhibition of CDK2 (unknown origin) by FRET assay
[16] = target: Cyclin-dependent kinase 5 (Homo sapiens, UniProt Q00535); test: Inhibition of CDK5 (unknown origin) by FRET assay
Chain of Cyclin-dependent kinase 5 (Q00535 whole entry): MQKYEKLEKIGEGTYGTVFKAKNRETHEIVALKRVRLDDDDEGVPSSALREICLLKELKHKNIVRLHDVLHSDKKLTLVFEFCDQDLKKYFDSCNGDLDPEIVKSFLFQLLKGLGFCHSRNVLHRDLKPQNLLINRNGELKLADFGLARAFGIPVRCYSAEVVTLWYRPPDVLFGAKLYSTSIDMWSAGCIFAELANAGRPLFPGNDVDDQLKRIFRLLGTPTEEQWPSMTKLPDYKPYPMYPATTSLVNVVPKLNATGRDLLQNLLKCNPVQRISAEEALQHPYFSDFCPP

[17] = Selectivity index, ratio of IC50 for CDK2 (unknown origin) to CDK1 (unknown origin)
[18] = Selectivity index, ratio of IC50 for CDK5 (unknown origin) to CDK1 (unknown origin)
[19] = target: T1, Tyrosine-protein kinase receptor UFO (Homo sapiens, UniProt P30530); test: Inhibition of AXL (unknown origin) by FRET assay
T1 sequence (P30530 whole entry): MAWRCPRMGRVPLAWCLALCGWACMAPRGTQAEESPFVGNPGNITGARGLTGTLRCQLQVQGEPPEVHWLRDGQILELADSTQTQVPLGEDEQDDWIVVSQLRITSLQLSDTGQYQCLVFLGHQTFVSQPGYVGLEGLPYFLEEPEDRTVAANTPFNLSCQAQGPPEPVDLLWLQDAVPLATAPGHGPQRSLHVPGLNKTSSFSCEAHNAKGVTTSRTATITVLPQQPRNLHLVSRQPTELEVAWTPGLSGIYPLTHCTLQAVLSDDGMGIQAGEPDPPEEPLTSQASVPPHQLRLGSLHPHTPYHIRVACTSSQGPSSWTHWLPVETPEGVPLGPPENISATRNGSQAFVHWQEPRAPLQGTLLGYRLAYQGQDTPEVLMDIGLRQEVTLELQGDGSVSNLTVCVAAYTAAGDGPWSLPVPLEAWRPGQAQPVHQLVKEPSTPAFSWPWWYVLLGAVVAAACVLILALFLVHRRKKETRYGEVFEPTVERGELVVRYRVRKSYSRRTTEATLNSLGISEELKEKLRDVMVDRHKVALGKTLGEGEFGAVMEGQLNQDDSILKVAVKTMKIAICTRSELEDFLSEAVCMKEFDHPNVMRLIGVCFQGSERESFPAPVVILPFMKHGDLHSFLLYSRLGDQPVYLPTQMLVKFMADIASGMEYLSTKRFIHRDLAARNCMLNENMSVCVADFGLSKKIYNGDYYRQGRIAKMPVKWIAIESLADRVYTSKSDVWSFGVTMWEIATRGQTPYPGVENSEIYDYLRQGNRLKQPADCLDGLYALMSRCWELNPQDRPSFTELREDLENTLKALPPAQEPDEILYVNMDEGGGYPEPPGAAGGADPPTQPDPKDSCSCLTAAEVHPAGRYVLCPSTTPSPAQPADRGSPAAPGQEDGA

[20] = target: Protein-tyrosine kinase 2-beta (Homo sapiens, UniProt Q14289); test: Inhibition of PTK2B (unknown origin) by FRET assay
Chain of Protein-tyrosine kinase 2-beta (Q14289 whole entry): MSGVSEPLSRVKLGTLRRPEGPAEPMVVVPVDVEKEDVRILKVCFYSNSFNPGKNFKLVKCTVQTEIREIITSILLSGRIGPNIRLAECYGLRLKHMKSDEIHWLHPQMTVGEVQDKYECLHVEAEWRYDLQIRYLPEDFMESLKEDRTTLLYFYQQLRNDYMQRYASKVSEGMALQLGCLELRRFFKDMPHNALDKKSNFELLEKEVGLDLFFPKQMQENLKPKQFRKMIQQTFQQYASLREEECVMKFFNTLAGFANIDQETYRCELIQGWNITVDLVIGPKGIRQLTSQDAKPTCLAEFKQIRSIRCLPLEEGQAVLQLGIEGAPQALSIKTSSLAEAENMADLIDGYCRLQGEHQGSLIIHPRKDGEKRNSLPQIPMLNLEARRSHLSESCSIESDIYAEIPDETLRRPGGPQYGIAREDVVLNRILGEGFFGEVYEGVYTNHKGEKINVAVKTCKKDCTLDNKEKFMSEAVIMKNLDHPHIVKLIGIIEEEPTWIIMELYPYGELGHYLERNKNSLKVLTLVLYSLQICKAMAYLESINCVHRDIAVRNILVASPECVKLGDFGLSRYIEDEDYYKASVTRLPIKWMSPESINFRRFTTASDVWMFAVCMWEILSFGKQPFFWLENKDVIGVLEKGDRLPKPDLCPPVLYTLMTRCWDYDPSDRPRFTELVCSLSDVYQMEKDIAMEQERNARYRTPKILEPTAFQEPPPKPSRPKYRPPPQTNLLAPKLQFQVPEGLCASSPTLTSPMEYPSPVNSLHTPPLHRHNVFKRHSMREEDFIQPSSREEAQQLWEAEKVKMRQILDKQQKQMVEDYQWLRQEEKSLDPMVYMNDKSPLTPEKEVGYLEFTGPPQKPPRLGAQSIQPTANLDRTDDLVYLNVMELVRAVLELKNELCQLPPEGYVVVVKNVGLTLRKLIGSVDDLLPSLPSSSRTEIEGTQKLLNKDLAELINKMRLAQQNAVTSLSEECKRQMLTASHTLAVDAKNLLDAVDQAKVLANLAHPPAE

[21] = target: Fibroblast growth factor receptor (Homo sapiens, UniProt P22607+P11362+P22455+P21802); test: Inhibition of FGFR (unknown origin) by FRET assay; format: protein assay
[22] = target: Tyrosine-protein kinase JAK1 (Homo sapiens, UniProt P23458); test: Inhibition of JAK1 (unknown origin) by FRET assay
Chain of Tyrosine-protein kinase JAK1 (P23458 whole entry): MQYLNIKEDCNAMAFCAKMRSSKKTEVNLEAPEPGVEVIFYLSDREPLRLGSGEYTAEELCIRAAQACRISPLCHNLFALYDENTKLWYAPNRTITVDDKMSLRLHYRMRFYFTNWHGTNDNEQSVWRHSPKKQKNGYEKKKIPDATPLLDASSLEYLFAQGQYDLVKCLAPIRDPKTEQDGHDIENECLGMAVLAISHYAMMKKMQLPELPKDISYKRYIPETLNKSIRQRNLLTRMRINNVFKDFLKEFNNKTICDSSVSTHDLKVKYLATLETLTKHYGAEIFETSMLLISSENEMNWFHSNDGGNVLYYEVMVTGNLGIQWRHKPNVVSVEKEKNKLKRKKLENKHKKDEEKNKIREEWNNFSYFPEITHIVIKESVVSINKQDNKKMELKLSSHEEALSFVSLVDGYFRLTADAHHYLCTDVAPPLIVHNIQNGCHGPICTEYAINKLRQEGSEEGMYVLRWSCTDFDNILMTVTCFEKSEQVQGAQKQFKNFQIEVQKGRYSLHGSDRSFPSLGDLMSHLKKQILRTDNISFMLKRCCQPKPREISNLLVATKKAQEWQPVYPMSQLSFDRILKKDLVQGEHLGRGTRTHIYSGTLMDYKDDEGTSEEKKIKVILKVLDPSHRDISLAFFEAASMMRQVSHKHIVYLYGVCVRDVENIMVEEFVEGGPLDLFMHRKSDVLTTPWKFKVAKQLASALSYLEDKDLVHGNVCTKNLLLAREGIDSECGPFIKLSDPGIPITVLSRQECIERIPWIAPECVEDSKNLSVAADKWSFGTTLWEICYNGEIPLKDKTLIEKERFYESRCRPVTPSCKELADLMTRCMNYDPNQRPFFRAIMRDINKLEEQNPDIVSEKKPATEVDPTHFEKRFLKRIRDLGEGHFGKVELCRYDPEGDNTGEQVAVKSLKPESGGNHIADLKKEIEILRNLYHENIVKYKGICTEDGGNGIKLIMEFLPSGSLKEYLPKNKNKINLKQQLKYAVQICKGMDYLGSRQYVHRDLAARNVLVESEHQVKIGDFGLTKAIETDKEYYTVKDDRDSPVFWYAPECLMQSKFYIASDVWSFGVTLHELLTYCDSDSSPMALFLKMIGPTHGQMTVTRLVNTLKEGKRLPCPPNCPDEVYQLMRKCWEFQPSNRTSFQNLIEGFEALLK

[23] = target: Insulin-like growth factor 1 receptor (Homo sapiens, UniProt P08069); test: Inhibition of IGF1R (unknown origin) by FRET assay
Chain of Insulin-like growth factor 1 receptor (P08069 31-736 limits assumed): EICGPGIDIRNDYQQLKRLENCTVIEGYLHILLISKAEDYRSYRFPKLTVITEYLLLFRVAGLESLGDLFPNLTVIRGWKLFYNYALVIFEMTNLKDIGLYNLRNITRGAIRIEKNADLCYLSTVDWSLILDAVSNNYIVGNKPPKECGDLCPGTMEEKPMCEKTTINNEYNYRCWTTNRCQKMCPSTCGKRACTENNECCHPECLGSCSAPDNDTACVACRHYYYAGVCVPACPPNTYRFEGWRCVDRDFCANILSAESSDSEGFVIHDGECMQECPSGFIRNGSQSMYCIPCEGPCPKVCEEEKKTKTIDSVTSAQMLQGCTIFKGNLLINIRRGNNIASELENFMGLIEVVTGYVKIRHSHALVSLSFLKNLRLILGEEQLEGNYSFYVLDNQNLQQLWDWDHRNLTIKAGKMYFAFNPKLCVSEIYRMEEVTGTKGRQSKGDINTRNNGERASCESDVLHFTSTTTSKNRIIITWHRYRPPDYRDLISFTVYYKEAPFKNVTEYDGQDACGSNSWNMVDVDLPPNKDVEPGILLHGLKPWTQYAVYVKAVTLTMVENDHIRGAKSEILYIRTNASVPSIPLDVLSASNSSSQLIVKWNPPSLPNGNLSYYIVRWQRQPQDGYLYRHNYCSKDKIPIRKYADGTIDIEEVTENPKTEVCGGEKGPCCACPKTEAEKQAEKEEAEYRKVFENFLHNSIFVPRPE
Chain of Insulin-like growth factor 1 receptor (P08069 741-1367 limits assumed): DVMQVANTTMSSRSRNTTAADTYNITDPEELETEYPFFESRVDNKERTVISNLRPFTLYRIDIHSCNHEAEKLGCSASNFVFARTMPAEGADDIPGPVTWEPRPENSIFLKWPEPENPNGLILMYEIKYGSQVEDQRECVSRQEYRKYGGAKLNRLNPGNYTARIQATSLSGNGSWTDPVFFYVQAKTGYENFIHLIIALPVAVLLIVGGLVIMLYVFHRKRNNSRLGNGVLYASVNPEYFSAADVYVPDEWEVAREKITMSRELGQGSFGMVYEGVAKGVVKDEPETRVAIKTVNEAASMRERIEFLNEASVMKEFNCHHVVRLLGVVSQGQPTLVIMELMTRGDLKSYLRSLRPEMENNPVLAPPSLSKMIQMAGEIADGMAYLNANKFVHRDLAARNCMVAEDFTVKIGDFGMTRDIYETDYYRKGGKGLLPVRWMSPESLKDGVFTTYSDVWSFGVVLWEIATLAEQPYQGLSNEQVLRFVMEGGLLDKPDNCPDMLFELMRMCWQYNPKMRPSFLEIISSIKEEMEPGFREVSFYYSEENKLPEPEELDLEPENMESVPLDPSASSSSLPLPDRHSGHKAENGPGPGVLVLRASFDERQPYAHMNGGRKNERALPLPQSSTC

[24] = target: Serine/threonine-protein kinase B-raf (Homo sapiens, UniProt P15056); test: Inhibition of BRAF (unknown origin) by FRET assay
Chain of Serine/threonine-protein kinase B-raf (P15056 whole entry): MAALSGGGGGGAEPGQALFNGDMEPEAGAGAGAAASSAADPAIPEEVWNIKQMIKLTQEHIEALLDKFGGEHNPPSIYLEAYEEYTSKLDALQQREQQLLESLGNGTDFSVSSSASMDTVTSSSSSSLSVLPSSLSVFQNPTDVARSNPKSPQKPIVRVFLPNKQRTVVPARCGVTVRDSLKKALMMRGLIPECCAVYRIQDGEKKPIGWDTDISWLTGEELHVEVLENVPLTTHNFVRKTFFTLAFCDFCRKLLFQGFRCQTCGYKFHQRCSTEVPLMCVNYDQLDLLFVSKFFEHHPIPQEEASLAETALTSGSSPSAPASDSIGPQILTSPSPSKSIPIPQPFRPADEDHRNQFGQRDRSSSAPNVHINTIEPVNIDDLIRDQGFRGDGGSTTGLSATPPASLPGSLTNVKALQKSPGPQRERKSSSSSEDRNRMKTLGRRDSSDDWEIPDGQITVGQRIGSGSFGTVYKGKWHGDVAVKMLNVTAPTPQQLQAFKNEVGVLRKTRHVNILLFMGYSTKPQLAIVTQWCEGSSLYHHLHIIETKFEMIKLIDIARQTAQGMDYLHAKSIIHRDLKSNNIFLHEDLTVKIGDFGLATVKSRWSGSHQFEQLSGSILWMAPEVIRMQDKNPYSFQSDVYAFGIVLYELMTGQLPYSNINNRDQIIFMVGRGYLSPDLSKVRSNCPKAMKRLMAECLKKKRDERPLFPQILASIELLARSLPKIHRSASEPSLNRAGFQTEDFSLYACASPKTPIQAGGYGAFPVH

[25] = tested on: MDA-PATC53; test: Downregulation of CDK1 expression in human MDA-PATC53 cells incubated at IC50 for 24 hrs by Western blotting analysis; format: functional, cell-based
[26] = Induction of cell cycle arrest in human MDA-PATC53 cells assessed as accumulation of cells at G2/M phase incubated at IC50 for 24 hrs measured by flow cytometric analysis (reference value: 9%); format: functional
[27] = tested on: MDA-PATC53; test: Induction of cell cycle arrest in human MDA-PATC53 cells assessed as accumulation of cells at S phase incubated at IC50 for 24 hrs measured by flow cytometric analysis; format: functional, cell-based

IC50 [14] [nM]	IC50 [15] [nM]	IC50 [16] [nM]	Ratio IC50 [17]	Ratio IC50 [18]	IC50 [19] [nM]	IC50 [20] [nM]	Structure (SMILES)	inhibition of growth at 10 µM [1] [%]	inhibition of growth at 10 µM [2] [%]	inhibition of growth at 10 µM [3] [%]	inhibition of growth at 10 µM [4] [%]	inhibition of growth at 10 µM [5] [%]	inhibition of growth at 10 µM [6] [%]	inhibition of growth at 10 µM [7] [%]	inhibition of growth at 10 µM [8] [%]	inhibition of growth at 10 µM [9] [%]	inhibition of growth at 10 µM [10] [%]	inhibition of growth at 10 µM [11] [%]	IC50 [12] [nM]	IC50 [13] [nM]	other results
44.5	622	135	14	3.04	2490	8960	S=C(Nc1cccc(Cl)c1)N1CCN(c2nnc(Cc3ccccc3)c3ccccc23)CC1	96.8	95.3	85.4	76.1	88	85	69.1	81.7	84.3	78.2	79.3	880	1140	IC50 [21]: 7620 nM; IC50 [22]: 8540 nM; IC50 [23]: 4290 nM; IC50 [24]: 1160 nM; Activity [25]: Active; Activity [26]: 16%; Activity [27]: Active
42.2	189	354	4.47	8.39	5650	8950	COc1ccc(Cc2nnc(N3CCN(C(=S)Nc4cccc(Cl)c4)CC3)c3ccccc23)cc1	97.1	93.5	84.2	86.4	92.3	89.3	74.2	88.2	85	62	78	730	1000	IC50 [21]: 2538 nM; IC50 [22]: 2420 nM; IC50 [23]: 8550 nM; IC50 [24]: 8140 nM; Activity [25]: Active; Activity [26]: 14%; Activity [27]: Active
53.8	286	159	5.31	2.95	7530	2490	O=C(Nc1ccccc1)N1CCN(c2nnc(Cc3ccccc3)c3ccccc23)CC1	77.9	87.4	49.7	62	23.8	41	29.7	63.1	36.2	18.4	76.5	2970	1650	IC50 [21]: 2579 nM; IC50 [22]: 3630 nM; IC50 [23]: 1270 nM; IC50 [24]: 9310 nM
36.8	305	369	8.29	10	5650	3630	COc1ccc(Cc2nnc(N3CCN(C(=O)Nc4ccc(Cl)c(C(F)(F)F)c4)CC3)c3ccccc23)cc1	99	97.6	74	89.2	61.4	84.1	72.3	89.6	87.4	71.4	85.5	510	740	IC50 [21]: 4626 nM; IC50 [22]: 5260 nM; IC50 [23]: 5510 nM; IC50 [24]: 2830 nM; Activity [25]: Active; Activity [26]: 21%; Activity [27]: Active
